From patent US10646490B2, “Thieno- and pyrrolopyrimidine analogues and prodrugs thereof as anticancer agents and methods of use thereof” (UNIVERSITY OF MARYLAND, BALTIMORE COUNTY, priority 2015, dated 2020) come the findings set out here.

In one data set the test system is MDA-MB-231. In words: Cancer cell line activity screening. The class given is cell-based, human.
Data set [1] deals with MIA Pa-Ca-2 pancreatic cancer cells. Briefly: Cancer cell line activity screening. The data set is classed as cell-based.
In a further data set the test system is A549. In words: Cancer cell line activity screening. The class given is cell-based.
In a further data set the test system is MOLM14. In words: Cancer cell line activity screening. The class given is cell-based.
The nature of data set [2]: Stability in aqueous buffer. The data set is classed as physicochemical.
The nature of data set [3]: Stability in biological media. The data set is classed as in vitro ADME.
Data set [4] is described as follows: Mouse pharmacokinetics, plasma half-life. Particulars: for t1/2: 10 mg/kg injection. The class given is in vivo. The procedure:
Further, mouse studies on 7 were carried out at The Cancer Center Pharmacology Core (CCPC, Colorado State University) by injection of 10 mg/kg of the compound, followed by euthanization at 15, 30, 60, 90, 120, 240, and 480 minutes. […] Mouse studies on 9 were performed in the same manner.

Data set [5] can be described thus: Maximum tolerated dose / toxicity in mice. The data set is classed as in vivo. Particulars: for MTD: mouse, in vivo. From the text:
(§1) In order to investigate the PK profile of these compounds, a series of halogenated pyrrolo[3,2-d]pyrimidine compounds was synthesized and first tested for activity in various cancer cell lines followed by a mouse model. […] This indicates a wide variance in activity and toxicity that necessitated the synthesis of a second series of compounds with N5 alkyl substitutions in an effort to slow the rate of metabolism, which was thought to be leading to the toxicity.

Data set [6] has as its system various cancer cell lines. In words: Cancer cell line activity screening, panel. As to conditions: Table 5; read-out: IC50 values as low as. The data set is classed as cell-based.
Excerpt: as §1

Where two headings read alike, the source gives them in different places.

The term IC50 denotes the concentration at which inhibition is half-maximal. In the case of `Clc1nc(Cl)c2[nH]ccc2n1` [Compound 19, 2,4-Dichloropyrrolo[3,2-d]pyrimidine], the IC50 came out at 9700 ± 9700 nM in the data set on MDA-MB-231, 5300 ± 1000 nM in data set [1], 14500 ± 3500 nM with A549 and 9500 ± 3100 nM with MOLM14.
As usually defined, the MTD is the largest dose that counted as tolerated. Compound `Cc1ccc(S(=O)(=O)n2cc(I)c3nc(Cl)nc(Cl)c32)cc1` [Compound 9, 2,4-Dichloro-7-iodo-5-tosyl-pyrrolo[3,2-d]pyrimidine] registered an IC50 in the data set with MDA-MB-231 (Homo sapiens, MDA-MB-231) of 790 ± 40 nM. Also, the “duration stable in aqueous buffer (for up to)” value in [2] was “up to 24 hours”. Also, the midpoint of inhibition in data set [1] (Homo sapiens, MIA PaCa-2), the IC50, lay at 500 ± 20 nM. For the same compound, the “time to undetectable in biological media” value in data set [3] is given as at most 1 hour. The t1/2 in [4] amounted to 32.7 min. In addition, in [5] (mice), the “maximum tolerated dose (MTD)” value came to 40 mg/kg and the MTD was 5 to 40 mg/kg.
As for `Clc1nc(Cl)c2[nH]cc(I)c2n1` [Compound 20, 7-iodo-2,4-dichloro pyrrolo[3,2-d]pyrimidine], the IC50 was 1200 ± 400 nM in the data set on MDA-MB-231 (Homo sapiens, MDA-MB-231); at least 14 nM in data set [6]; 370 ± 50 nM in data set [1] (Homo sapiens, MIA PaCa-2); 1000 ± 100 nM in the data set on A549 (Homo sapiens, A549); 550 ± 70 nM in the data set with MOLM14 (Homo sapiens, MOLM-14). Also, the “time to little to no detection in mouse plasma” value in data set [4] was at most 70 min. The same compound returned a t1/2 in data set [4] of 30.7 min. Further, in [5] (mice), the MTD fell in the range of 5 to 40 mg/kg.
Take `Clc1nc(Cl)c2[nH]cc(Br)c2n1` [Compound 6]: the IC50 was 400 ± 300 nM in the data set on MDA-MB-231 (Homo sapiens, MDA-MB-231); at least 14 nM in data set [6]; 14 ± 1 nM in data set [1] (Homo sapiens, MIA PaCa-2); 50 ± 20 nM in the data set on A549 (Homo sapiens, A549); 23 ± 4 nM with MOLM14 (Homo sapiens, MOLM-14). In data set [5] (mice), this compound displayed a maximal tolerated dose (MTD) of 5 to 40 mg/kg. Moreover, the “toxicity higher than 7” value in data set [5] (vs 7) was 2 fold.
For the compound `Clc1nc(Cl)c2c(n1)c(I)cn2COCc1ccccc1` [Compound 8, 5-((Benzyloxy)methyl)-2,4-dichloro-7-iodo-pyrrolo[3,2-d]pyrimidine], the half-inhibitory concentration (IC50) came to 6100 ± 400 nM with MDA-MB-231 (Homo sapiens, MDA-MB-231) and 7300 ± 800 nM in data set [1] (Homo sapiens, MIA PaCa-2).
